Values of other authors, collected in patent US11053249B2, “Proteasome inhibiting β-lactam prodrugs useful for the treatment of cancer and neurodegenerative disorders” (Vita Api, priority 2016, dated 2021).

Conditions: Hogan & Corey, 2005, 2007

CC(C)C(O)[C@@]12NC(=O)[C@H](CCCl)[C@@H]1NC2=O (stereo partly drawn) [initial β-lactam]
experimental infrared C═O stretching frequency: 1756 cm⁻¹
